Experimental data: PMC8776995 (Frontiers in Chemistry, 2022)
Several values for one entry are separate records, joined by “and”; a condition that tells them apart may be missing. Equal values may be shown once.

How the values were obtained:
wild-type EGFR = wild-type EGFR (Homo sapiens, UniProt P00533); assay: EGFR kinase assay (ELISA); conditions: for A450: raw ELISA absorbance
H460 cells = assay: CCK-8 antiproliferation assay, H460; conditions: for Inhibitory efficacy: H460 cells
A549 cells = assay: CCK-8 antiproliferation assay, A549; conditions: for Inhibitory efficacy: A549 cells
Protocol: (§1) The compounds were dissolved in DMSO to make a 20 μM stock solution and diluted to the concentration of working solutions with complete growth medium before administration.
(§2) Cells were seeded in 96-well plates: 3,000–5,000 cells/well in 100 ul. One day after seeding, the test compounds at concentration between 1.0 and 16.0 μ M or 0.1% DMSO (as control) were added to cells in triplicate. 48 h later, CCK-8 was added and incubated the plate for 1–4 h in the incubator. The absorbance at 450 nm were measured using a microplate reader (Bio-Tek).

PC-9 cells = assay: CCK-8 antiproliferation assay, PC-9; conditions: for Inhibitory efficacy: single repeats (Repeat 1-3), given as fraction
H1975 cells = assay: CCK-8 antiproliferation assay, H1975; conditions: for Inhibitory efficacy: H1975 cells
Protocol: as §1, §2

[1] = 1uM, given as fraction, Repeat 1-3
[2] = 2uM, given as fraction, Repeat 1-3
[3] = 4uM, given as fraction, Repeat 1-3
[4] = 8uM, given as fraction, Repeat 1-3
[5] = 16uM, given as fraction, Repeat 1-3

wild-type EGFR, sequence (P00533 25-1210): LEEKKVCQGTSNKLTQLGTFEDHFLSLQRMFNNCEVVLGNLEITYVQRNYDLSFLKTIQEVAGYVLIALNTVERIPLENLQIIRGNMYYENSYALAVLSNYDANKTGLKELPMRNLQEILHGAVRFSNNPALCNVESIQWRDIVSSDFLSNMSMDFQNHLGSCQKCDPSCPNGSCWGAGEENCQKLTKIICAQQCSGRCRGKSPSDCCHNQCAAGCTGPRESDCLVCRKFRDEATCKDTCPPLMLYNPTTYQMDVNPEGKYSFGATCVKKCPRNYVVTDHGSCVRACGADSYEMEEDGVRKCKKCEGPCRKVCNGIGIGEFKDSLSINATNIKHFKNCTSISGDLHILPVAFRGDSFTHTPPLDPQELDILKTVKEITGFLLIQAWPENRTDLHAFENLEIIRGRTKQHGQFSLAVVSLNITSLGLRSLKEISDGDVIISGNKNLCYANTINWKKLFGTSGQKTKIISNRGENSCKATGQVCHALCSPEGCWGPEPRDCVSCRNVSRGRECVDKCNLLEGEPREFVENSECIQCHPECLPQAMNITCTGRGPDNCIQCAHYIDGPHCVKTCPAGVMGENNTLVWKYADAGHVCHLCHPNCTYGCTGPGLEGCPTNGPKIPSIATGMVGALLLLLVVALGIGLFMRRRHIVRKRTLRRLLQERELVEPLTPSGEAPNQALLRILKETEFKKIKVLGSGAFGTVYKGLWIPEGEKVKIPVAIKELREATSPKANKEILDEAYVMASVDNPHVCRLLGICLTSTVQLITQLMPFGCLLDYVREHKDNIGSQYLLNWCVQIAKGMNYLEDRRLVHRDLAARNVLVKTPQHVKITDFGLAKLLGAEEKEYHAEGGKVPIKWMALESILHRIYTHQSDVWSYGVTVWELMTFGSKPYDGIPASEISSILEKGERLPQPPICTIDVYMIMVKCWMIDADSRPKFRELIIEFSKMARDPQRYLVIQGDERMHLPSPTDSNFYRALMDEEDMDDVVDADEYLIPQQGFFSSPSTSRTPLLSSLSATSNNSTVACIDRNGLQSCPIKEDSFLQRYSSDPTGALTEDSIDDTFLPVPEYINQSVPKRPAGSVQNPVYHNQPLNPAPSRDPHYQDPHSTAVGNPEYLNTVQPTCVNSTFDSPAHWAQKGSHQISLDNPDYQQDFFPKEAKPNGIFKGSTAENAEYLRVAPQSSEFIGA

COCCOc1cc2ncnc(Nc3cccc(-c4cn(-c5ccc(C)cc5O)nn4)c3)c2cc1OCCOC [e18, 2-(4-{3-[6,7-Bis-(2-methoxy-ethoxy)-quinazolin-4-ylamino]-phenyl}-[1,2,3]triazol-1-yl)-5-methyl-phenol]
melting point: 100 to 103 °C | inhibition at 100 fM (wild-type EGFR; concentration 0.0001 nM (reference for normalisation), one value per replicate column): 0% | inhibition at 30 pM (wild-type EGFR; concentration 0.03 nM, one value per replicate column): 5.9% | Inhibition (wild-type EGFR; concentration 0.03 nM, one value per replicate column, 3e-05 µM): 7.547 | inhibition at 0.0003 µM (wild-type EGFR; concentration 0.3 nM, one value per replicate column): 9.63% | Inhibition (wild-type EGFR; concentration 0.3 nM, one value per replicate column, 0.0003 µM): 10.2916 | inhibition at 0.003 µM (wild-type EGFR; concentration 3 nM, one value per replicate column): 16.9% | Inhibition (wild-type EGFR; concentration 3 nM, one value per replicate column, 0.003 µM): 12.693 | inhibition at 0.03 µM (wild-type EGFR; concentration 30 nM, one value per replicate column): 21.1% | Inhibition (wild-type EGFR; concentration 30 nM, one value per replicate column, 0.03 µM): 13.2075 | inhibition at 0.3 µM (wild-type EGFR; concentration 300 nM, one value per replicate column): 25.3% | Inhibition (wild-type EGFR; concentration 300 nM, one value per replicate column, 0.3 µM): 17.1527 | inhibition at 3 µM (wild-type EGFR; concentration 3000 nM, one value per replicate column): 26.1% | Inhibition (wild-type EGFR; concentration 3000 nM, one value per replicate column, 3 µM): 22.2985 | inhibition at 30 µM (wild-type EGFR; concentration 30000 nM, one value per replicate column): 68.9% | Inhibition (wild-type EGFR; concentration 30000 nM, one value per replicate column, 30 µM): 69.1252 | A450 (wild-type EGFR; concentration 0.0001 nM): 0.879 and 0.798 | A450 (wild-type EGFR; concentration 0.03 nM): 0.841 and 0.754 | A450 (wild-type EGFR; concentration 0.3 nM): 0.817 and 0.738 | A450 (wild-type EGFR; concentration 3 nM): 0.77 and 0.724 | A450 (wild-type EGFR; concentration 30 nM): 0.743 and 0.721 | A450 (wild-type EGFR; concentration 300 nM): 0.716 and 0.698 | A450 (wild-type EGFR; concentration 3000 nM): 0.711 and 0.668 | A450 (wild-type EGFR; concentration 30000 nM): 0.435 and 0.395 | IC50 (wild-type EGFR; read-out: IC50 (μM) EGFR, ELISA, 3 μmol/L ATP): 12.4 µM | Inhibitory efficacy (H460 cells; [1]): 0.2332 and 0.2742 | Inhibitory efficacy (H460 cells; [2]): 0.4443 and 0.3282 | Inhibitory efficacy (H460 cells; [3]): 0.5163 and 0.5814 | Inhibitory efficacy (H460 cells; [4]): 0.5774 and 0.6654 | Inhibitory efficacy (H460 cells; [5]): 0.7445 and 0.6414 | IC50 (H460 cells; Homo sapiens, NCI-H460, 48 h, read-out: IC50 (μM) H460, CCK-8, 48 h, average ± SD of three independent experiments): 4.3 ± 0.62 µM | inhibition at 1 µM (H460 cells; Homo sapiens, NCI-H460, read-out: Inhibitory efficacy, H460 cells, 1uM, given as fraction, Repeat 1-3): 17.1% | inhibition at 2 µM (H460 cells; Homo sapiens, NCI-H460, read-out: Inhibitory efficacy, H460 cells, 2uM, given as fraction, Repeat 1-3): 27.5% | inhibition at 4 µM (H460 cells; Homo sapiens, NCI-H460, read-out: Inhibitory efficacy, H460 cells, 4uM, given as fraction, Repeat 1-3): 55.5% | inhibition at 8 µM (H460 cells; Homo sapiens, NCI-H460, read-out: Inhibitory efficacy, H460 cells, 8uM, given as fraction, Repeat 1-3): 55% | inhibition at 16 µM (H460 cells; Homo sapiens, NCI-H460, read-out: Inhibitory efficacy, H460 cells, 16uM, given as fraction, Repeat 1-3): 72.3% | Inhibitory efficacy (A549 cells; [1]): 0.3234 and 0.3188 | Inhibitory efficacy (A549 cells; [2]): 0.4627 and 0.499 | Inhibitory efficacy (A549 cells; [3]): 0.5875 and 0.5347 | Inhibitory efficacy (A549 cells; [4]): 0.7578 and 0.7459 | Inhibitory efficacy (A549 cells; [5]): 0.8733 and 0.8713 | IC50 (A549 cells; Homo sapiens, A549, 48 h, read-out: IC50 (μM) A549, CCK-8, 48 h, average ± SD of three independent experiments): 2.53 ± 0.2 µM | inhibition at 1 µM (A549 cells; Homo sapiens, A549, read-out: Inhibitory efficacy, A549 cells, 1uM, given as fraction, Repeat 1-3): 24.6% | inhibition at 2 µM (A549 cells; Homo sapiens, A549, read-out: Inhibitory efficacy, A549 cells, 2uM, given as fraction, Repeat 1-3): 37.2% | inhibition at 4 µM (A549 cells; Homo sapiens, A549, read-out: Inhibitory efficacy, A549 cells, 4uM, given as fraction, Repeat 1-3): 66.7% | inhibition at 8 µM (A549 cells; Homo sapiens, A549, read-out: Inhibitory efficacy, A549 cells, 8uM, given as fraction, Repeat 1-3): 73.2% | inhibition at 16 µM (A549 cells; Homo sapiens, A549, read-out: Inhibitory efficacy, A549 cells, 16uM, given as fraction, Repeat 1-3): 88.9% | IC50 (PC-9 cells; Homo sapiens, PC-9, 48 h, read-out: IC50 (μM) PC-9): 15.2 ± 0.75 µM | inhibition at 8 µM (PC-9 cells; Homo sapiens, PC-9, read-out: Inhibitory efficacy, PC-9, 8uM, single repeats (Repeat 1-3), given as fraction): 25.2% | inhibition at 16 µM (PC-9 cells; Homo sapiens, PC-9, read-out: Inhibitory efficacy, PC-9, 16uM, single repeats (Repeat 1-3), given as fraction): 48.5% | Inhibitory efficacy (PC-9 cells; PC-9, 8uM, 8 µM): 0.3051 and 0.2654 | Inhibitory efficacy (PC-9 cells; PC-9, 16uM, 16 µM): 0.5238 and 0.4787 | Inhibitory efficacy (H1975 cells; [1]): 0.2067 and 0.1552 | Inhibitory efficacy (H1975 cells; [2]): 0.2381 and 0.2095 | Inhibitory efficacy (H1975 cells; [3]): 0.3038 and 0.341 | Inhibitory efficacy (H1975 cells; [4]): 0.4524 and 0.4681 | Inhibitory efficacy (H1975 cells; [5]): 0.6095 and 0.6024 | IC50 (H1975 cells; Homo sapiens, NCI-H1975, 48 h, read-out: IC50 (μM) H1975, CCK-8, 48 h, average ± SD of three independent experiments): 10 ± 0.69 µM | inhibition at 1 µM (H1975 cells; Homo sapiens, NCI-H1975, read-out: Inhibitory efficacy, H1975 cells, 1uM, given as fraction, Repeat 1-3): 16.5% | inhibition at 2 µM (H1975 cells; Homo sapiens, NCI-H1975, read-out: Inhibitory efficacy, H1975 cells, 2uM, given as fraction, Repeat 1-3): 26.2% | inhibition at 4 µM (H1975 cells; Homo sapiens, NCI-H1975, read-out: Inhibitory efficacy, H1975 cells, 4uM, given as fraction, Repeat 1-3): 33.4% | inhibition at 8 µM (H1975 cells; Homo sapiens, NCI-H1975, read-out: Inhibitory efficacy, H1975 cells, 8uM, given as fraction, Repeat 1-3): 46.7% | inhibition at 16 µM (H1975 cells; Homo sapiens, NCI-H1975, read-out: Inhibitory efficacy, H1975 cells, 16uM, given as fraction, Repeat 1-3): 55.4%
